Data taken from patent US10308662B2, “Thienopyranones as kinase and epigenetic inhibitors” (SignalRx Pharmaceuticals, Inc., priority 2014, dated 2019).

Experiments:
[1] = test system: SKNBE(2) neuroblastoma cell line; assay: Cytotoxicity / proliferation study, SKNBE(2); type: cell-based; settings: Homo sapiens, SKNBE2; SKNBE(2) cell line
NB9464 cell line = assay: Cytotoxicity / proliferation study, NB9464; type: cell-based, murine; settings: Mus musculus
[2] = test system: MYCN-dependent MB patient derived xenograft (PDX) cell line; assay: Cytotoxicity / proliferation study, PDX MB; type: cell-based; settings: Homo sapiens
BRD4 = BRD4 (Homo sapiens, UniProt O60885); assay: BRD4 inhibition assay (region not specified); type: binding
Experimental: The activity of a compound of the invention as an inhibitor of a bromodomain-containing protein, such as a BET protein, such as BRD2, BRD3, BRD4, and/or BRDT, or an isoform or mutant thereof, may be determined in vitro, in vivo, or in a cell line. In vitro assays include assays that determine inhibition of bromodomain-containing proteins. Alternatively, inhibitor binding may be determined by running a competition experiment where a provided compound is incubated with a bromodomain-containing protein, such as a BET protein bound to known ligands, labeled or unlabeled. For example, bromodomain inhibition can be determined in vitro using Alpha Screen Technology (http://www.reactionbiology.com/webapps/site/NewsPDFs/Bromodomain%20Assay%20Platform%20for%20Drug%20Screening%20and%20Discovery.pdf). […] Bromodomain inhibition may also be predicted by in silico modeling as described below in the Examples.
Computational modeling was performed using the commercially available FlexX (http://www.biosolveit.de/FlexX/download/flexx_brochure.pdf) software tools. […] It should be noted that the more negative the number or value of the docking score is, the stronger is the predicted binding energy at the BRD4 site that recognizes the acetyl lysine of chromatin.

p-AKT(Ser473) = assay: Western blot of pAKT in SKNBE(2) cells; type: cell-based, human; settings: 24 hrs treatment, 50 ng/ml IGF stimulation
Experimental: (§1) Cells were stimulated with 50 ng/ml IGF for 30 min and used for lysate preparation. Proteins were quantitated by the BCA protein assay (Pierce). Equal amounts of protein were resolved by polyacrylamide gels, transferred to nitrocellulose membrane and probed by Western blot with the following primary antibodies: p-AKT(Ser473), AKT (Cell Signaling Technologies), N-MYC, CyclinD1 and β-actin (Santa Cruz Biotechnology).

N-MYC = assay: Western blot of N-MYC in SKNBE(2) cells; type: cell-based, human; settings: 24 hrs treatment, 50 ng/ml IGF stimulation
Experimental: as §1

MYCN promoter region = assay: Brd4 chromatin precipitation with quantitative PCR of MYCN promoter in SKNBE(2) cells; type: cell-based, human; settings: 24 hours exposure
Experimental: MYCN amplified SKNBE(2) cells were exposed to inhibitors for 24 hours then chromatin was precipitated with Brd4 (rabbit polyclonal antibody) along with rabbit IgG as a negative control (IgG). Precipitated chromatin was analyzed for the MYCN gene (2 sites within the MYCN promoter region) by quantitative PCR and enrichment is shown as the percentage of total input DNA (FIG. 4). The negative control region primers amplify within a gene desert region approximately 1 Mb away from MYCN (MYC-N NR). Error bars represent±SEM of triplicate data. P<0.05 as compared to positive control (paired t-test).

[3] = test system: NB9464 murine neuroblastoma tumor; assay: NB9464 tumor growth in nude mice; type: in vivo; settings: 50 mg/kg, 3 days a week for 1.5 weeks, intra-peritoneal
From the text: MYCN-overexpressing murine neuroblastoma cells (NB9464) were transplanted into nude mice, grown for 24 days and randomized into two groups.

Panc02 tumor cells = assay: Orthotopic Panc02 pancreatic model of spontaneous metastasis; type: in vivo, mice; settings: 50 mg/kg three times a week
Experimental: Panc02 (1×10^6) tumor cells were injected into the pancreas of WT mice (n=18). After 20 days, mice were randomized into two groups. One group was treated with DMSO (control) and the other group was treated with 50 mg/kg of SF2523, three times a week. Tumors were removed 35 days after tumor implantation. Values are mean±SEM (n=8 in each gp; P<0.01; pair wise two-sided Student's t test). […] Values are mean±SEM (n=7; P<0.01; pair wise two-sided Student's t test). The data are representative of three independent experiments performed.

N-myc (MYCN) mRNA = assay: Real-time PCR of N-myc mRNA in IMR32 cells; type: cell-based; settings: IMR32, 5 μM, 24 hrs
Cyclin D1 mRNA = assay: Real-time PCR of Cyclin D1 mRNA in IMR32 cells; type: cell-based; settings: IMR32, 5 μM, 24 hrs
[4] = test system: B16 F10 luciferase melanoma cells; assay: B16 melanoma mouse model of metastasis; type: in vivo, mice; settings: 50 mg/kg every other day, 15 days
From the text: The luciferase signal was monitored every third day by injecting luciferin, until the lungs were harvested on day 15 (n=5). […] Lungs extracted from these animals are shown below the luciferase imaged pictures supporting the repression of tumor growth in Cmpd 28-treated mice.

Compound: O=c1cc(N2CCOCC2)oc2c(-c3ccc4c(c3)OCCO4)csc12 [Cmpd 28]
- IC50 [1]: 7.6 µM
- IC50 (NB9464 cell line): 8.7 µM
- IC50 [2]: 3.6 µM
- BRD4 inhibition (BRD4): showed activity against BRD4 regions 1 and 2
- pAKT level by Western blot (p-AKT(Ser473)): decreased MYCN and pAKT
- MYCN quantity by Western blot (N-MYC): decreased MYCN
- MYCN expression (Brd4-precipitated chromatin, MYCN promoter PCR) (MYCN promoter region): significantly repressed MYCN expression
- tolerability (body weight) [3]: well tolerated
- tumor growth compared to vehicle [3]: significantly blocked tumor growth
- spontaneous metastasis (Panc02 tumor cells): blocks spontaneous metastasis
- MYCN mRNA expression (N-myc (MYCN) mRNA): inhibits MYCN expression
- Cyclin D1 mRNA expression (Cyclin D1 mRNA): reducing mRNA expression
- luciferase bioimaging of cancer cells [4]: little evidence of the presence of cancer cells
- reduction in metastatic nodules ([4]; lungs): 60%
